From patent publication US7582629B2, “Derivatives of isothiazol-3(2H)-one 1,1-dioxides as liver X receptor modulators” (AstraZeneca AB, priority 2005, dated 2009)

Biological target: T1, LXRα (Homo sapiens, UniProt Q13133)
T1 construct: human LXRalpha (amino acid 205-447); made in house; host or cells: E. coli
T1 sequence (Q13133 205-447): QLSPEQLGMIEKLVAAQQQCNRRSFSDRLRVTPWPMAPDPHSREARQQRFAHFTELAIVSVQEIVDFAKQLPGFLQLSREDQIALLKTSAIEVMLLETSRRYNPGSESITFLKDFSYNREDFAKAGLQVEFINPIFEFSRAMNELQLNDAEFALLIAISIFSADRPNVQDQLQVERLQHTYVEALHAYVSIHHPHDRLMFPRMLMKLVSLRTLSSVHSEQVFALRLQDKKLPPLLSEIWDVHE
Assay: Co-activator recruitment assay (LXR-LBD / SRC-1 peptide, time-resolved fluorescence)
Assay type: biochemical
Conditions: coactivator recruitment assays
Description: The Ligand Binding Domain (LBD) of human LXRalpha (amino acid 205-447) and LXRbeta (amino acid 216-461) was produced by recombinant techniques in E. coli. A fragment of the human Steroid Receptor Co-Activator-1 (SRC-1) was produced as a synthetic peptide. An anti-6×His-antibody coupled with Europium (Eu^3+) was used to recognize the His-tag on the LXR-LBD and Allophycocyanin (APC) coupled to streptavidin was used to recognize the biotinylated SRC-1. Agonist binding to LXRalpha or LXRbeta enhances the affinity of LXR towards SRC-1 and thereby brings Eu^3+ and APC in close proximity. Eu^3+ is excited at 337 nm and emitts light at 620 nm. This emission, when in close proximity, excites APC to emit light at 665 nm.
Compounds (10 mM) in DMSO were diluted (⅓) in DMSO in 10 concentrations. […]
The assay mix has the following final concentrations; LXRalpha mix: 0.06 μg/mL Eu-labelled anti-6×His Ab, […] Streptavidin APC, 30 nM SRC-1 peptide and 0.9 μg/mL LXRalpha in buffer and LXRbeta mix; 0.06 μg/mL Eu-labelled anti-6×His Ab, 1.15 μg/1 mL Streptavidin APC, 90 nM SRC-1 peptide and 0.2 μg/mL LXRbeta in buffer. Time-resolved fluorescence readings were done in a Wallac Victor reader at 665 nm followed by reading at 615 nm. […]

SMILES	EC50
COCCN1C(=O)C(Nc2ccc3oc(C(C)=O)cc3c2)=C(c2ccccc2)S1(=O)=O [Example 13, 4-[(2-Acetyl-1-benzofuran-5-yl)amino]-2-(2-methoxyethyl)-5-phenylisothiazol-3(2H)-one 1,1-dioxide]	270 nM
O=C1C(Nc2ccc(OC(F)F)cc2)=C(c2ccccc2)S(=O)(=O)N1Cc1ccc(OC(F)F)cc1 [Example 14, 2-[4-(Difluoromethoxy)benzyl]-4-{[4-(difluoromethoxy)phenyl]amino}-5-phenylisothiazol-3(2H)-one 1,1-dioxide]	75 nM
